Reference: US5661136A, “2-halo-2'-fluoro ARA adenosines as antinoplastic agents” (priority 1994, dated 1997)
Read-outs that look alike come from different tables or passages of the source.

Experiments:
H.Ep.-2 = assay: Cytotoxicity, inhibition of cell proliferation to 50% of untreated controls; format: cell-based, human
Source text: (§1) In contrast to the previously reported 2'-substituted 9-β-D-arabinofuranosyl-2-haloadenines, the 2'-fluoro compounds were quite cytotoxic to three human cell lines, H.Ep.-2, CCRF-CEM, and K562, and the murine lukemia line, L1210.
(§2) Obviously, to be useful as anticancer agents, the nucleosides of the present invention must show the ability to kill cells in vitro. […] One cell line (L1210) is a murine lukemia, whereas the other three are human neoplasms. […] Many people today emphasize the importance of toxicity to human cell lines.

CCRF-CEM = assay: as above; format: cell-based, human; conditions: read-out: Cytotoxicity as IC50, CCRF-CEM
Source text: as §1, §2

L1210 = assay: as above; format: cell-based; conditions: Mus musculus; L1210 murine leukemia line; read-out: Cytotoxicity as IC50, L1210
Source text: as §1, §2

[1] = biological target: E. coli purine nucleoside phosphorylase (Escherichia coli, UniProt P0ABP8); assay: Phosphorolysis of nucleosides by purine nucleoside phosphorylase; format: biochemical; conditions: 0.5 mM nucleoside, 50 mM pH 8.0 phosphate buffer, HPLC, incubation 30-240 min, read-out: % Cleavage
Chain of E. coli purine nucleoside phosphorylase (P0ABP8 2-239): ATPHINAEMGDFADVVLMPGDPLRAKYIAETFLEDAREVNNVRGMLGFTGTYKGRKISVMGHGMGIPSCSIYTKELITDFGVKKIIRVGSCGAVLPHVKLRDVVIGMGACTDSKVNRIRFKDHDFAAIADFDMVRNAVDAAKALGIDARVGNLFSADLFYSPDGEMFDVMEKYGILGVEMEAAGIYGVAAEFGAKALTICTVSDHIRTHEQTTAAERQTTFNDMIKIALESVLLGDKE
Source text: Subsequently, the phosphorolysis of these compounds were compared by E. coli purine nucleoside phosphorylase. The […] and 2'-deoxyribonucleosides are rapidly cleaved by this enzyme, whereas the […] nucleosides substituted at 2' by Cl, N3, or NH2 are almost completely resistant. The 2'-fluoro compounds are less resistant to cleavage, being cleaved at roughly one-third the rate of the […] and 2'-deoxynucleosides. This reduction in cleavage rate may be acceptable for pharmaceutical purposes as phosphorylation in mammalian cells is quite rapid.
More specifically, an enzyme reaction mixture consisting of 0.5 mM nucleoside substrate, 50 mM pH 8.0 phosphate buffer and purine nucleoside phosphorylase in a final volume of 1.0 mL was allowed to incubate for 30, 60, 120, 180 and 240 minutes, and the amounts of nucleoside and substrate remaining were determined by HPLC.

K562 = assay: Cytotoxicity, inhibition of cell proliferation to 50% of untreated controls; format: cell-based, human
Source text: as §1, §2

P388 leukemia = assay: In vivo activity vs ip P388 leukemia, ip administration; design: species or system CD2F1 mice
Source text: This, coupled with the lower toxicity of the cleavage product, 2-chloroadenine, relative to 2-fluoroadenine, make this compound a preferred compound of the present invention. The following Table III provides a summary of the in vivo activity of the 9-(2-fluoro-2-deoxy-β-D-arabinofuranosyl)-2-haloadenines vs P388 leukemia cell line in which CD2F1 mice were implanted ip with 10^6 P388 leukemia cells on day 0 in accordance with the protocol of Waud et al [Cancer Res. 50:3232 (1990)].
In the above table, the optimal dose refers to mg/kg/dose (≤LD50); ILS refers to the increase in life span; and the log change refers to the change in viable tumor cell population at the end of therapy compared to that at the start of therapy, based on the median day of death among the animals that died. The data in this table is presented in accordance with the National Cancer Institute activity criteria for drug testing in which an ILS of 20-74% is considered moderate activity, and an ILS of 75% or more is considered good activity.

[2] = HEp-2, H.Ep.-2 human cell line, read-out: Cytotoxicity as IC50, H.Ep.-2
[3] = K562 human cell line, read-out: Cytotoxicity as IC50, K562
[4] = 30 mg/kg/dose ip, q 3 h × 8 (Days 1, 5, 9)
[5] = 50 mg/kg/dose ip, q 3 h × 8 (Days 1, 5, 9)
[6] = 25 mg/kg/dose ip, q 3 h × 8 (Days 1, 5, 9)

Compound	IC50 (H.Ep.-2; [2])	IC50 (CCRF-CEM; CCRF-CEM human cell line)	IC50 (L1210)	metabolised at 500 µM [1]	also measured
Nc1nc(Br)nc2c1ncn2[C@H]1C[C@H](O)[C@@H](CO)O1 [Y = Br, X = H]	20 nM	20 nM	900 nM		
Nc1nc(Br)nc2c1ncn2[C@@H]1O[C@H](CO)[C@@H](O)[C@@H]1O [Y = Br, X = OH]	4000 nM		3000 nM		
Nc1nc(Cl)nc2c1ncn2[C@H]1C[C@H](O)[C@@H](CO)O1 [Y = Cl, X = H, 2-chloro-2'-deoxyadenosine]	30 nM	3 nM	70 nM	> 99%	
Nc1nc(Cl)nc2c1ncn2[C@@H]1O[C@H](CO)[C@@H](O)[C@@H]1O [Y = Cl, X = OH]	3000 nM	10000 nM	< 3000 nM		
Nc1nc(F)nc2c1ncn2[C@H]1C[C@H](O)[C@@H](CO)O1 [Y = F, X = H, 2-fluoro-2'-deoxyadenosine]	200 nM	200 nM	900 nM	> 99%	
Nc1nc(F)nc2c1ncn2[C@@H]1O[C@H](CO)[C@@H](O)[C@@H]1O [Y = F, X = OH, 2-fluoro-9-β-D-arabinofuranosyladenine, reference compound]				99%	IC50 (H.Ep.-2; Homo sapiens, HEp-2, read-out: Cytotoxicity as IC50, H.Ep.-2): 9000 nM; IC50 (K562; Homo sapiens, K562, read-out: Cytotoxicity as IC50, K562): 150 nM; IC50 (CCRF-CEM; Homo sapiens, CCRF-CEM): 400 nM
Nc1nc(Br)nc2c1ncn2[C@@H]1O[C@H](CO)[C@@H](O)[C@@H]1F [compound 3b, 2-Bromo-9-(2-deoxy-2-fluoro-β-D-arabinofuranosyl)-9H-purin-6-amine]	220 nM	20 nM	260 nM	45%	IC50 (K562; [3]): 50 nM; Log10 change in viable tumor cell population (P388 leukemia; [4]): -1.0; Median % ILS (dying mice only) (P388 leukemia; [4]): +100%; Tumor-free Survivors (P388 leukemia; [4]): 0/6; Log10 change in viable tumor cell population (P388 leukemia; [5]): +1.6; Median % ILS (dying mice only) (P388 leukemia; [5]): +41%; Tumor-free Survivors (P388 leukemia; [5]): 0/6; Log10 change in viable tumor cell population (P388 leukemia; 200 mg/kg/dose ip, qd 1-5): +0.1; Median % ILS (dying mice only) (P388 leukemia; 200 mg/kg/dose ip, qd 1-5): +33%; Tumor-free Survivors (P388 leukemia; 200 mg/kg/dose ip, qd 1-5): 0/6
Nc1nc(F)nc2c1ncn2[C@@H]1O[C@H](CO)[C@@H](O)[C@@H]1F [compound 3g, 2-Fluoro-9-(2-deoxy-2-fluoro-β-D-arabinofuranosyl)-9H-purin-6-amine]	340 nM	140 nM	380 nM	10%	IC50 (K562; [3]): 300 nM; Log10 change in viable tumor cell population (P388 leukemia; [6]): -0.1; Median % ILS (dying mice only) (P388 leukemia; [6]): +81%; Tumor-free Survivors (P388 leukemia; [6]): 0/6; Log10 change in viable tumor cell population (P388 leukemia; 100 mg/kg/dose ip, qd 1-5): -1.8; Median % ILS (dying mice only) (P388 leukemia; 100 mg/kg/dose ip, qd 1-5): +63%; Tumor-free Survivors (P388 leukemia; 100 mg/kg/dose ip, qd 1-5): 0/3
